Source: US12138256B2, “Treatment of cardiopulmonary disorders” (Bayer Aktiengesellschaft, priority 2021, dated 2024)

How the values were obtained:
[1] = Protein binding via Transil assay, rat plasma; format: in vitro ADME; settings: Rat Wistar plasma, Transil assay
Source text: (§1) The distribution of a test substance between Transil® (phosphatidylcholine lipid bilayers immobilized on silica beads) and plasma is a characteristic feature of any pharmaceutical compound and is dependent on its extent of binding to plasma proteins. By comparing the distribution between Transil® and buffer with the distribution between Transil® and plasma of any species of interest, the unbound fraction in the plasma of the respective animal species can be calculated in vitro. The respective plasma and buffer concentrations were determined via a radioactivity analysis. A detailed description of the method and its validation was published by Schuhmacher et al. (2).

[2] = Caco-2 permeability test (C-5.1); format: in vitro ADME, human; settings: human; for efflux ratio at 2 h, 2 μM / Papp A→B at 2 h, 2 μM / Papp B→A at 2 h, 2 μM: Caco-2 (2 μM); for Papp A→B at 2 h, 2 μM / Papp B→A at 2 h, 2 μM: concentration per compound 2.0 or 2.4 μM; for Papp A→B at 2 h, 2 μM: read-out: Papp A-B (mean +/− SD); for Papp B→A at 2 h, 2 μM: read-out: Papp B-A (mean +/− SD)
Description: The in vitro permeation of a test compound across a Caco-2 cell monolayer is a well-established assay system to predict the permeability from the gastro-intestinal tract (1). The permeability of the compounds of the present invention in such Caco-2 cells was determined as described below:
Human caco-2 cells were seeded on 24-well insert plates and were allowed to grow for 14-16 days. For permeability studies, the test compounds were dissolved in DMSO and diluted to the final test concentration of 2 μM with transport buffer [Hanks' Buffered Salt Solution, Gibco/Invitrogen, further supplemented with glucose and HEPES]. For determination of the apical to basolateral permeability (PappA-B), the test compound solution was added to the apical side of the cell monolayer and transport buffer to the basolateral side of the monolayer; for determination of the basolateral to apical permeability (PappB-A), the test compound solution was added to the basolateral side of the cell monolayer and transport buffer to the apical side of the monolayer. Samples were taken from the donor compartment at the beginning of the experiment to confirm mass balance. After an incubation of 2 h at 37° C., samples were taken from both compartments. Samples were analyzed by LC-MS/MS, and the apparent permeability coefficients were calculated. Lucifer Yellow permeability was assayed for each cell monolayer to ensure cell monolayer integrity, and the permeability of Atenolol (low permeability marker) and Sulfasalazine (marker for active excretion) was determined for each batch as quality control.

[3] = Protein binding via Transil assay, human plasma; format: in vitro ADME
Source text: as §1

[4] = Protein binding via Transil assay, plasma of all species investigated (C-5.2); format: in vitro ADME; settings: Wistar (rat), Beagle (dog), plasma (Transil beads), read-out: free fractions
Source text: as §1

[5] = test system: isolated Langendorff-perfused rat heart; assay: Isolated perfused heart according to Langendorff: perfusion pressure and wash-out score (C-1.2); settings: for Perfusion pressure (%) (timepoint at 20 min) Mean: isolated Langendorff-perfused rat heart; for Perfusion pressure (%) (timepoint at 90 min) Mean: wash-out phase; for wash-out score: PP recovery after 60 min of washout related to maximum drop of PP; for wash-out score / effect on perfusion pressure (PP): comparative example 11 300 nmol/l, others 100 nmol/l, n=6
Description: Male Wistar rats (strain HsdCpb:WU) with a body weight of 200-250 g were anaesthetized with Narcoren® (100 mg/kg). The thorax was opened and the heart was then exposed, excised and connected to a Langendorff apparatus by placing a cannula into the aorta. The heart was perfused retrogradely at 9 ml/min at constant flow with a Krebs-Henseleit buffer solution (gassed with 95% O2 and 5% CO2, pH 7.4, 35° C.; composition in mmol/l: NaCl 118; KCl 3; NaHCO3 22; KH2PO4 1.2; MgSO4 1.2; CaCl2 1.8; Glucose 10; Na pyruvate 2). A pressure transducer registered the perfusion pressure in the perfusion system. The left ventricular pressure (LVP) was measured using a second pressure transducer connected to a water-filled balloon which was inserted into the left ventricle via the left atrium. The end diastolic pressure was initially set to 8 mm Hg by adjusting the volume of the balloon. The hearts were spontaneously beating. The signals from the pressure transducer were amplified, registered by a personal computer (Powerlab Chart software, ADInstruments).
Then the hearts were perfused for a further 120 min without the test substance (wash-out phase). The reversibility of the effect (wash-out score) was calculated as a percentage of the PP recovery after 60 min of washout related to the maximum drop of PP induced by the test compound. The wash-out score obtained in this manner was taken as a measure for the residence time of the test substance at the site of action.

[6] = Storage stability of pseudopolymorphic forms (XRPD after storage); format: physicochemical; settings: 25° C./60% and 40° C./75% relative humidity
[7] = Human (male) plasma, Transil assay, read-out: Fraction unbound

O=C(O)c1ccc(CCN(CCc2ccccc2OCc2ccc(-c3ccc(C(F)(F)F)cc3)cc2Cl)[C@H]2CCCc3nc(C(=O)O)ccc32)cc1 [comparative example 11, (5S)-5-{[2-(4-carboxyphenyl)ethyl][2-(2-{[3-chloro-4′-(trifluoromethyl)[biphenyl]-4-yl]methoxy}phenyl)ethyl]amino}-5,6,7,8-tetrahydroquinoline-2-carboxylic acid]
fraction unbound [1]: 0.00224 | Papp at 2 h, 2 μM ([2]; Caco-2, 2 μM, 2 h at 37° C.): 1.51 ×10⁻⁶ cm/s | efflux ratio at 2 h, 2 μM [2]: 0.64 ± 0.1 | Papp A→B at 2 h, 2 μM [2]: 1.51 ± 0.17 ×10⁻⁶ cm/s | Papp B→A at 2 h, 2 μM [2]: 0.97 ± 0.06 ×10⁻⁶ cm/s | fraction unbound [3, 7]: 0.000764 | fraction unbound ([3]; plasma (Transil beads), human plasma, read-out: plasma fu (fraction unbound)): 0.000764 | fraction unbound [4]: < 0.01 | Wash-out score (%) after 60 min ([5]; 300 nmol/l): 2.9% | Perfusion pressure (%) (timepoint at 20 min) Mean ([5]; 300 nmol/l): 69.0% | Perfusion pressure (%) (timepoint at 90 min) Mean ([5]; 300 nmol/l): 71.9% | wash-out score [5]: 2.9% | effect on perfusion pressure (PP) [5]: pronounced reduction of perfusion pressure

O=C(O)c1ccc(CCN(CCc2ccccc2OCc2ccc(-c3ccc(C(F)(F)F)cc3)cc2Cl)[C@H]2CCCc3nc(C(=O)O)ccc32)cc1 [example 4, (5S)-{[2-(4-Carboxyphenyl)ethyl][2-(2-{[3-chloro-4′-(trifluoromethyl)biphenyl-4-yl]methoxy}phenyl)-ethyl]amino}-5,6,7,8-tetrahydroquinoline-2-carboxylic acid]
storage stability of the form ([6]; listed as monohydrate I): stable

O=C(O)CCCCN(CCc1ccccc1OCc1ccc(CCc2ccccc2)cc1)Cc1ccc(C(=O)O)cc1 [comparative example 1, 4-[((4Carboxybutyl)-{2-[(4-phenethylbenzyl)oxy]phenethyl}amino)methyl]benzoic acid]
fraction unbound [1]: 0.00351 | efflux ratio at 2 h, 2 μM [2]: 20 ± 3.5 | Papp A→B at 2 h, 2 μM [2]: 3.1 ± 0.39 ×10⁻⁶ cm/s | Papp B→A at 2 h, 2 μM [2]: 63.1 ± 7.1 ×10⁻⁶ cm/s | fraction unbound [3, 7]: 0.00392 | fraction unbound [4]: < 0.01 | wash-out score [5]: 30% | effect on perfusion pressure (PP) [5]: pronounced reduction of perfusion pressure

O=C(O)c1ccc(CCN(CCc2ccccc2OCc2ccc(-c3ccc(C(F)(F)F)cc3)cc2Cl)[C@H]2CCCc3nc(C(=O)O)ccc32)cc1 [example 2, (5S)-{[2-(4-Carboxyphenyl)ethyl][2-(2-{[3-chloro-4′-(trifluoromethyl)biphenyl-4-yl]methoxy}phenyl)-ethyl]amino}-5,6,7,8-tetrahydroquinoline-2-carboxylic acid]
storage stability of the form ([6]; listed as monohydrate II): underwent conversion to monohydrate I

O=C(O)CCCCN(CCc1cc(F)ccc1OCc1ccc(-c2nc3cc(Cl)ccc3o2)cc1)C1CCCc2nc(C(=O)O)ccc21 (single isomer, unassigned) [comparative example 3, (5)-{(4-carboxybutyl)[2-(2-{[4-(5-chloro-1,3-benzoxazol-2-yl)benzyl]oxy}-5-fluorophenyl)ethyl]amino}-5,6,7,8-tetrahydroquinoline-2-carboxylic acid]
Wash-out score (%) after 60 min ([5]; 100 nmol/l): 25.4% | Perfusion pressure (%) (timepoint at 20 min) Mean ([5]; 100 nmol/l): 63.3% | Perfusion pressure (%) (timepoint at 90 min) Mean ([5]; 100 nmol/l): 72.5% | wash-out score [5]: 25.4% | effect on perfusion pressure (PP) [5]: pronounced reduction of perfusion pressure
